Structures are written as SMILES.

Experiment [1] deals with renal tubular cells (RTC). Nature of the experiment: In vitro inflammation model: renal tubular cells co-cultivated with bacterial lysate-activated leukocytes. In kind it is cell-based, rat. The protocol: Kidneys from 1-3 day old rats were excised under aseptic conditions. The tissue was blended and dissociated by collagenase treatment (0.5%, 30 min at 37° C.). The final suspension was centrifuged for 5 min at 50 g. The pellet was resuspended in about 10 ml of DMEM/F12 (Gibco, USA) supplemented with 10% FCS (Gibco, USA) and kept for 2 min, after which the supernatant was transferred to another tube and the pellet was repeatedly resuspended. After 10 min, the renal tubules were pelleted and dissociated cells remaining in the suspension were discarded. The pellet was resuspended in DMEM/F12 with 10% FCS and seeded onto 24-well plates or onto coverslips placed in 35-mm glass-bottom Petri dishes.
E. coli strain No. 85 was cultured overnight in a cultivation medium containing 1% tryptone, 0.5% yeast extract and 1% NaCl (Sigma-Aldrich, USA). The medium, containing roughly 10^9 colony-forming units (CFU) per ml, was pelleted at 300 g for 3 min. The bacterial lysate was prepared by diluting 30 ml of an overnight (ON) culture and diluting the precipitate in 3 ml of 0.9% NaCl followed by autoclaving for 1.5 hr at 120° C.
5 ml heparinized blood collected from the jugular vein of adult male rats was carefully layered over 5 ml of Ficoll-Urografin (density of 1.077 g/cm^3), and centrifuged for 30 min at 200 g. This procedure results in erythrocyte pelleting, while the mononuclear fraction of leukocytes forms an interphase ring on the Ficoll surface, which was carefully collected. Leukocytes were transferred into another tube and centrifuged for 3 min at 200 g. The resultant pellet was resuspended in 5 ml of DMEM/F12. After cell counting in a hemocytometer, the cells were diluted to a final concentration of about 1×10^5 cells per ml.
In a two-day old renal cell culture, the medium was substituted with DMEM/F12 (400 μl per well, 1600 μl per dish), supplemented with (depending on the purpose): GSK-3β inhibitor LiCl (9 mM) (Sigma-Aldrich, USA), water-soluble antioxidant Trolox (50 μM, 100 μM) (Sigma-Aldrich, USA), MTAs 10-(6-plastoquinonyl)decyl-triphenylphosphonium (SkQ1), synthesized according to Antonenko et al. (2008) Biochemistry (Mosc) 73:1273-87), 10 nM, 100 nM), and 10-(6′-plastoquinonyl) decylrhodamine 19 SkQR1), synthesized according to Antonenko (2008), (1 nM, 10 nM, or 100 nM). Renal cells were incubated for 2 hr in this medium, followed by supplementation with leukocytes or neutrophils in DMEM/F12, or DMEM/F12, alone, in the control sample (400 μl per well, 1600 μl per dish). Simultaneously, the bacterial lysate or lipopolysaccharide (100 ng/ml, LPS, Sigma-Aldrich, USA) solution in DMEM/F12 and DMEM/F12 alone in the control sample (100 μl per well, 400 μl per dish) were added. Renal cells, leukocytes (neutrophils) were co-cultivated for 24 or 48 hr with bacterial lysate or LPS. Cell death (both necrotic and apoptotic) rate was evaluated using Annexin-V FITC Kit (Invitrogen, USA).
The ROS-sensitive fluorescent probe 2,7-DCF-DA (Molecular Probes, USA) dissolved in DMEM/F12 without bicarbonate (final concentration 10 μM) was added to renal cells (500 μl per well of 24-well plate, 2 ml per dish) and incubated for 15 min at 37° C. followed by a wash with DMEM/F12 without bicarbonate. MDA was determined as in (Mihara and Uchiyama (1978) Anal. Biochem. 86:271-8). Fluorescent probe, DAF-2-DA (Calbiochem, San Diego, Calif., USA) was used for NO determination in living cells. The procedure was the same as for 2,7-DCF-DA. The nitrite/nitrate concentration (as products of NO oxidation) in culture media was determined using Nitrite/Nitrate Assay Kit (Sigma-Aldrich, USA). TNFα was determined using the kit Rat TNFα ELISA Ready-SET-Go (Ebioscience, USA).
Renal cells were imaged with an LSM510 inverted confocal microscope (Carl Zeiss Inc., Jena, Germany) with excitation at 488 nm and emission collected at 500 nm-530 nm with a pinhole diameter of 150 μm. Images were processed using ImageJ software (NIH, Bethesda, Md., USA).

Experiment [2] concerns Wistar rats with acute pancreatitis. Put plainly: Arginine-induced acute pancreatitis model. In kind it is in vivo, rat. The following applies: for MPO activity in pancreatic tissue homogenates: control 52.9, intact 6.1. The procedure: Kidney homogenates for MPO determination were centrifuged at 20000 g 15 min, the pellets were resuspended in 50 mM K-phosphate buffer containing 0.5% CTAB. Resulted samples were frozen and thawed three times and then centrifuged at 10600 g 10 min. Supernatants were analyzed for MPO activity in chromogenic reaction with o-phenylenediamine (OPD). 100 μl sample was mixed with 100 μl substrate buffer (25 mM Na-citrate, 50 mM Na-phosphate, 0.45 mg/ml OPD, 0.1% H2O2, pH 5.0) and was incubated 15 min at room temperature and then OD was detected at 492 nm.
42 Wistar rats (age: 20-25 week, weight 400 g-750 g) were distributed among 4 experiemntal groups with the same average weight. SkQ1 was administered with drinking water with an estimated dosage of 250 nmoles/kg/day or 50 nmoles/kg/day. Acute pancreatitis was induced by a single intraperitoneal (ip) injection of arginine (100 mg/100 g of animal weight; 20% arginine solution in about 2.5 ml phosphate buffer).
The experimental groups were: (1) Intact (n=10); (2) Control (n=10) treated with arginine ip injection; (3) SkQ250-SkQ1 pretreatment with 250 nmoles/kg/day dosage for 9 days; IP injection of arginine on day 9, continuation of SkQ1 treatment for 24 hr (n=10); and (4) SkQ50-SkQ1 pretreatment with 50 nmoles/kg/day dosage for 9 days. IP injection of arginine on day 9, continuation of SkQ1 treatment for 24 hr (n=10).
The activity of pancreatic myeloperoxidase (MPO) was also measured as described in Example 1 (for kidney tissue).
Samples of pancreas were fixed in 10% formalin and then prepared for eosin-hematoxylin staining of 5 μm-6 μm slices using standard techniques. Stained samples (slices) were examined under light microscopy.
The intensity of inflammation in the samples was measured by a standard ascending scale score from 0 to 3. The average score of inflammation in rats without SkQ treatment was 1.5.

For `CC1=C(C)C(=O)C(CCCCCCCCCC[P+](c2ccccc2)(c2ccccc2)c2ccccc2)=CC1=O` [SkQ1, 10-(6-plastoquinonyl)decyl-triphenylphosphonium], in experiment [1] (10 nM, pretreatment 2 hr, co-cultivation with activated leukocytes), the “ROS production in renal cells (DCF fluorescence)” value is on record as “suppression of ROS production after co-cultivation with activated leukocytes to levels close to those observed on controls”. In addition, in experiment [1] (48 hr exposure to activated leukocytes, pre-incubation with drug), the “renal cell death (Annexin V-positive)” value was “more pronounced than that afforded by the traditional water-soluble antioxidant, Trolox”. Also, the “MPO activity in pancreatic tissue homogenates” value in experiment [2] (SkQ50: 50 nmoles/kg/day for 9 days + 24 hr) stood at 50.0; in experiment [2] (SkQ250: 250 nmoles/kg/day for 9 days + 24 hr), 15.8. Further, the “Average inflammation score (pancreas histology, scale 0 to 3)” value in experiment [2] (SkQ50: 50 nmoles/kg/day, untreated pancreatitis 1.5) is 1.5. Besides, the “weight of the pancreas (edema)” value in experiment [2] (both dosages (250 and 50 nmoles/kg/day in drinking water)) is “prevented an increase”.
